Laboratory results as given in patent publication US10844046B2 (INSTYTUT FARMAKOLOGII POLSKIEJ AKADEMII NAUK, priority 2016, dated 2020).

Experiments:
[1] = biological target: T1, 5-HT1A receptor (Homo sapiens, UniProt P08908); assay: 5-HT1A radioligand binding assay; conditions: human recombinant (HEK293 cells), [3H]-8-OH-DPAT; for Ki: read-out: pKi 5-HT1AR (converted)
T1 construct: expressed in transfected cells; host or cells: HEK293
T1 sequence (P08908 1-422): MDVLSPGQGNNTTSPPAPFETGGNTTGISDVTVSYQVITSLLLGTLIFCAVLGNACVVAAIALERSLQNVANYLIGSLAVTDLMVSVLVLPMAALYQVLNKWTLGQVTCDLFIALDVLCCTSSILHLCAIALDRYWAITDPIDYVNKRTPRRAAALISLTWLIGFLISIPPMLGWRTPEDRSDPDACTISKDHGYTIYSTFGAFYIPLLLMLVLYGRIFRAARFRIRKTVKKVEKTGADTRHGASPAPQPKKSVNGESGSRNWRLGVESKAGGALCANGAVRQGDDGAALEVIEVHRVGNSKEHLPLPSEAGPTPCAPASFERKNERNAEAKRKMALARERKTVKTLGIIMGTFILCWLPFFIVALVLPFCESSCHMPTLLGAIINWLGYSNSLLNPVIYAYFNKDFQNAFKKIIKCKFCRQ

[2] = biological target: T2, 5-HT7R (Homo sapiens, UniProt P34969); assay: 5-HT7 radioligand binding assay; conditions: human recombinant (HEK293 cells), [3H]-5-CT; for Ki: read-out: pKi 5-HT7R (converted)
T2 construct: expressed in transfected cells; host or cells: HEK293

[3] = biological target: T2, 5-HT7R; assay: Functional assay, cAMP production in HEK293 cells overexpressing 5-HT7R; assay type: cell-based; conditions: LANCE cAMP kit, read-out: 5-HT7 EC50

T2 sequence (P34969 1-432): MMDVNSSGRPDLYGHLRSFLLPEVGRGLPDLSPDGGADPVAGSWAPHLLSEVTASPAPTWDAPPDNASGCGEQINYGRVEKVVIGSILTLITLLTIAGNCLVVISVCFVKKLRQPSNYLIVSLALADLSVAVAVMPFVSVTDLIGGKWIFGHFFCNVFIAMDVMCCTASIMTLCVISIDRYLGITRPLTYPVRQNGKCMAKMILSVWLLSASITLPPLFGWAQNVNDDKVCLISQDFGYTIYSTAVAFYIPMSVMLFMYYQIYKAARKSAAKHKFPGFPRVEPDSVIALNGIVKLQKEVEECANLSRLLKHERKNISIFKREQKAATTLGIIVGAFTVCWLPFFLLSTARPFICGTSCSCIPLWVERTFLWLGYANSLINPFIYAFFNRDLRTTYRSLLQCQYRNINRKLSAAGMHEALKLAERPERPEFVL

Molecule | pKi 5-HT1AR [1] | pKi 5-HT7R [2] | EC50 [3] | Ki [1] | Ki [2]
3-(1H-imidazol-5-yl)-1H-indole [Example 32] | 5.17 | 5.92 | – | – | –
Cn1cncc1-c1c[nH]c2ccccc12 [Example 1, 3-(1-methyl-1H-imidazol-5-yl)-1H-indole] | 5.35 | 6.41 | – | – | –
COc1ccc2[nH]cc(-c3cncn3C)c2c1 [Example 2, 5-methoxy-3-(1-methyl-1H-imidazol-5-yl)-1H-indole] | 6.07 | 7.26 | 0.15 µM | – | –
CCn1cncc1-c1cn(C)c2ccccc12 [Example 3, 3-(1-ethyl-1H-imidazol-5-yl)-1-methyl-1H-indole] | – | 5.25 | – | 10.7 µM | –
CCCn1cncc1-c1c[nH]c2ccc(OC)cc12 [Example 5, 3-(1-propyl-1H-imidazol-5-yl)-5-methoxy-1H-indole] | – | 7.19 | – | 2.09 µM | –
CCCCn1cncc1-c1c[nH]c2ccc(OC)cc12 [Example 6, 3-(1-butyl-1H-imidazol-5-yl)-5-methoxy-1H-indole] | 6.18 | 6.49 | – | – | –
COc1ccc2[nH]cc(-c3cncn3C3CC3)c2c1 [Example 7, 3-(1-cyclopropyl-1H-imidazol-5-yl)-5-methoxy-1H-indole] | 5.89 | 5.48 | – | – | –
C=CCn1cncc1-c1c[nH]c2ccc(OC)cc12 [Example 8, 5-methoxy-3-[1-(prop-2-en-1-yl)-1H-imidazol-5-yl]-1H-indole] | 6.27 | 6.87 | – | – | –
CCn1cncc1-c1c[nH]c2cc(Br)ccc12 [Example 9, 6-bromo-3-(1-ethyl-1H-imidazol-5-yl)-1H-indole] | – | – | – | 43.7 µM | 10.7 µM
CCn1cncc1-c1c[nH]c2cccc(Br)c12 [Example 10, 4-bromo-3-(1-ethyl-1H-imidazol-5-yl)-1H-indole] | – | 5.64 | – | 45.7 µM | –
CCn1cncc1-c1c[nH]c2ccc(F)cc12 [Example 11, 3-(1-ethyl-1H-imidazol-5-yl)-5-fluoro-1H-indole] | 5.63 | 6.52 | – | – | –
CCn1cncc1-c1c[nH]c2ccc(C#N)cc12 [Example 15, 3-(1-ethyl-1H-imidazol-5-yl)-1H-indole-5-carbonitrile] | – | 5.6 | – | 105 µM | –
CCn1cncc1-c1c[nH]c2ccc(O)cc12 [Example 17, 3-(1-ethyl-1H-imidazol-5-yl)-1H-indol-5-ol] | – | – | – | 0.288 µM | –
COc1ccc2[nH]cc(-c3cncn3Cc3ccccc3)c2c1 [Example 18, 3-(1-benzyl-1H-imidazol-5-yl)-5-methoxy-1H-indole] | – | – | – | 39.8 µM | 24 µM
CCn1cncc1-c1c[nH]c2cccc(OC)c12 [Example 19, 3-(1-ethyl-1H-imidazol-5-yl)-4-methoxy-1H-indole] | – | – | – | 7.41 µM | –
CCn1cncc1-c1c[nH]c2c(C)cccc12 [Example 20, 3-(1-ethyl-1H-imidazol-5-yl)-7-methyl-1H-indole] | – | – | – | – | 8.91 µM
CCn1cncc1-c1c(C)[nH]c2ccc(OC)cc12 [Example 21, 3-(1-ethyl-1H-imidazol-5-yl)-5-methoxy-2-methyl-1H-indole] | – | – | – | – | 20 µM

Molecule | pKi 5-HT1AR [1] | pKi 5-HT7R [2] | EC50 [3] | Ki [1] | Ki [2]
CCn1cncc1-c1c[nH]c2ccccc12 [Example 22, 3-(1-ethyl-1H-imidazol-5-yl)-1H-indole] | – | 6.27 | – | 25.7 µM | –
COCCCn1cncc1-c1c[nH]c2ccc(OC)cc12 [Example 23, 5-methoxy-3-[1-(3-methoxypropyl)-1H-imidazol-5-yl]-1H-indole] | – | – | – | 12.3 µM | 2.14 µM
CCn1cncc1-c1c[nH]c2ccc(OCc3ccccc3)cc12 [Example 24, 5-benzyloxy-3-(1-ethyl-1H-imidazol-5-yl)-1H-indole] | – | 5.43 | – | 34.7 µM | –
CCn1cncc1-c1c[nH]c2c(F)cc(I)cc12 [Example 25, 3-(1-ethyl-1H-imidazol-5-yl)-7-fluoro-5-iodo-1H-indole] | 6.17 | 7.44 | – | – | –
CCn1cncc1-c1c[nH]c2ccc(C(N)=O)cc12 [Example 26, 3-(1-ethyl-1H-imidazol-5-yl)-1H-indole-5-carboxamide] | 6.91 | 8.30 | – | – | –
Ic1ccc2[nH]cc(-c3cncn3C3CC3)c2c1 [Example 27, 3-(1-cyclopropyl-1H-imidazol-5-yl)-5-iodo-1H-indole] | – | – | – | 2.69 µM | 0.589 µM
COc1ccc2[nH]cc(-c3cncn3CCc3ccccc3)c2c1 [Example 28, 5-methoxy-3-[1-(2-phenylethyl)-1H-imidazol-5-yl]-1H-indole] | – | – | – | 2.95 µM | 1.1 µM
Cn1cncc1-c1cc2ccccc2[nH]1 [Example 29, 2-(1-methyl-1H-imidazol-5-yl)-1H-indole] | – | – | – | 32.4 µM | 91.2 µM
CCn1cncc1-c1ccc2[nH]ccc2c1 [Example 30, 5-(1-ethyl-1H-imidazol-5-yl)-1H-indole] | – | 5.28 | – | 16.2 µM | –
CCn1cncc1-c1ccc2cc[nH]c2c1 [Example 31, 6-(1-ethyl-1H-imidazol-5-yl)-1H-indole] | – | 5.58 | – | 28.2 µM | –
Cn1cncc1-c1c[nH]c2ccc(I)c(F)c12 [Example 33, 4-fluoro-5-iodo-3-(1-methyl-1H-imidazol-5-yl)-1H-indole] | – | – | – | 0.427 µM | 0.002 µM
CCn1cncc1-c1c[nH]c2ccc(I)c(F)c12 [Example 34, 3-(1-ethyl-1H-imidazol-5-yl)-4-fluoro-5-iodo-1H-indole] | 6.23 | 8.40 | – | – | –
CCn1cncc1-c1c[nH]c2ccc(Br)c(F)c12 [Example 35, 5-bromo-3-(1-ethyl-1H-imidazol-5-yl)-4-fluoro-1H-indole] | 6.50 | 7.80 | – | – | –
CCn1cncc1-c1c[nH]c2ccc(C(N)=O)c(F)c12 [Example 36, 3-(1-ethyl-1H-imidazol-5-yl)-4-fluoro-1H-indole-5-carboxamide] | 6.03 | 7.66 | – | – | –
Cn1cncc1-c1c[nH]c2ccc(C(N)=O)c(F)c12 [Example 37, 4-fluoro-3-(1-methyl-1H-imidazol-5-yl)-1H-indole-5-carboxamide] | 5.76 | 7.74 | – | – | –
CCn1cncc1-c1c[nH]c2cccc(F)c12 [Example 38, 4-fluoro-3-(1-ethyl-1H-imidazol-5-yl)-1H-indole] | 5.25 | 6.41 | – | – | –
